Measurements from patent publication US10308682B2, “Inhibition of tumor growth with aggregates of small molecules” (BRANDEIS UNIVERSITY, priority 2013, dated 2019).

What was measured:
Assay type in all cases: cell-based
HeLa cells [1] = assay: Cell viability assay (MTT), HeLa cells
Experimental: (§1) Cells in exponential growth phase were seeded in a 96 well plate at a concentration of 50,000 cell/well. The cells were allowed to attach to the wells for 24 h at 37° C., 5% CO2, then the culture medium was removed and 100 μL new culture medium containing 1 at gradient concentrations was placed into each well. After culturing at 37° C., 5% CO2 for desired time, each well was added by 10 μL of 5 mg/mL MTT 43-(4,5-Dimethylthiazol-2-yl)-2,5-diphenyltetrazolium bromide), and the plated cells were incubate at dark for 4 h. 100 μL 10% SDS with 0.01 M HCl was added to each well to stop the reduction reaction and to dissolve the purple. After incubation of the cells at 37° C. for overnight, the viability is measured. Data represent the mean±standard deviation of three independent experiments.
(§2) The estimation of the threshold concentration of aggregation (320-340 μM) for 1 allows us to examine the cytotoxicity of 1 in monomer and molecular aggregate forms. We first tested the cytotoxicity of 1 towards HeLa cells, the most widely studied cancer cell line, below and above the threshold concentration.

U87MG = assay: Cell viability assay (MTT), U87MG
Experimental: as §1, §2

HeLa cells [2] = assay: Intracellular concentration of 1 in HeLa cells by LC-MS; settings: incubated with 300 μM and 400 μM for 24 h
Experimental: FIG. 3 depicts the response of cancer cells toward molecular aggregates of 1. (a) Intracellular concentration of 1 in HeLa cells treated with 1 for 12 h at different temperatures measure by LC-MS (left bar=37° C.; right bar=4° C.). (b) Confocal images of FITC annexin V and PI stained HeLa cells without incubation with 1 (live cells), HeLa cells treated with 400 μM of 1 for 36 h, and necrotic HeLa cells (induced by DMSO). Scale bar=20 μm. (c) Fluorescence emission of 7-AAD and 1 in cell lysate (15,000 cell/mL) at λex=488 nm. (d) Cell cycle analysis, by flow cytometry, of HeLa cells treated with 0, 300 or 400 μM of 1 for 24 h. Depletion of G2/M phase occurs in cells treated with 400 μM of 1. […] The gaps were created on the HeLa cells of 100% confluence in 24 well plates, and measured after incubation for 18 h.
The cytotoxicity of the molecular aggregates of 1 toward the cancer cells in cell assays and on animal model warrants further examination on the mechanism of the cell death. […] We measured the intracellular concentrations of 1 in the lysate of the HeLa cells incubated with 300 μM and 400 μM of 1 for 24 h (FIG. 3a) at 37° C. or 4° C. Based on the amount of 1, measured by liquid chromatography-mass spectroscopy (LC-MS) and the estimated total cell volume, the concentration of 1 inside the cells is about 150% of the concentration of 1 used for the incubation at 37° C. […]

PC12 cells = assay: Tubulin staining (tubulin tracker), PC12 cells; settings: 400 μM, 24 h

For `O=C(Cc1ccc2ccccc2c1)N[C@@H](Cc1ccccc1)C(=O)N[C@@H](Cc1ccccc1)C(=O)O` [Compound 1], the “concentration at which molecular aggregates exhibit cytotoxicity” value (HeLa cells [1]) was 400 µM, the “concentration at which molecular aggregates exhibit cytotoxicity, weight/volume” value (HeLa cells [1]; 400 μM converted) was “about 0.19 mg/mL” and the “cytotoxicity towards HeLa cells” value (HeLa cells [1]; 200 and 300 μM, below threshold concentration) was “little cytotoxicity”. For the same compound, the “cell death of HeLa cells, extended assay” value (HeLa cells [1]; 200 or 300 μM, 72 h) was “hardly results in significant cell death”, the “time dependent viability of HeLa cells” value (HeLa cells [1]; 400 and 500 μM) was “little loss of cell viability until after 38 h” and the “cytotoxicity towards HeLa cells after removal of aggregates” value (HeLa cells [1]; 400 and 500 μM, medium passed through 0.22 μm PVDF filter) was “largely alleviates the cytotoxicity”. The “viability of the HeLa cells” value (HeLa cells [1]; 400 and 500 μM, within 48 h, as prepared medium) was “less than 20%”, the “cytotoxicity towards U87MG” value (U87MG) was “decreases of cell viabilities only observed at 400 and 500 μM” and the “concentration of 1 inside the cells” value (HeLa cells [2]; 4° C.) was “about 30 % of the incubating concentration”. The “concentration of 1 inside the cells” value (HeLa cells [2]; 37° C.) was “about 150 % of the concentration of 1 used for the incubation” and the microtubule morphology (PC12 cells) was “intact microtubule networks”.
